Assay [1] concerns the target microsomal aminopeptidase. To be noted: Ocain et al.; cited from earlier work.
In another assay the target is arginyl aminopeptidase. The following applies: Ocain et al.; cited from earlier work.
A further assay has as its target cytosol aminopeptidase. The following applies: Ocain et al.; cited from earlier work.
Another assay concerns the target α-thrombin (Homo sapiens, UniProt P00734). Description: Amidolytic thrombin assay (inhibition constant Ki). The assay is classed as biochemical. The following applies: chromogenic substrate Pefachrome t-PA, HBSA pH 7.5; slow-binding (kon/koff) or Dixon analysis. On the procedure: The ability of the compounds of the present invention to act as inhibitors of thrombin catalytic activity in comparison to Hirulog-1 (compound 25) was assessed by determining their inhibition constant, Ki.
Enzyme activity was determined using the chromogenic substrate Pefachrome t-PA (CH3 SO2 -D-hexahydrotyrosine-glycyl-L-arginine-p-nitroaniline, obtained from Pentapharm Ltd.). The substrate was reconstituted in deionized water prior to use.
Ki values were determined for test compounds using the following methodologies:
The assay was conducted by combining in appropriate wells of a Corning microtiter plate, 50 μL of HBSA, 50 μL of the test compound at a specified concentration diluted in HBSA (or HBSA alone for Vo(uninhibited velocity) measurement), and 50 μL of the chromogenic substrate diluted in HBSA. At time zero, 50 μL of α-thrombin diluted in HBSA, was added to the wells yielding a final concentration of 0.25 nM in a total volume of 200 μL. Velocities of Pefachrome-tPA substrate hydrolysis which occurred over a 40 minute time period was measured by the change in absorbance at 405 nm using a Thermo Max® Kinetic Microplate Reader. […] The linear relationship between kobs and inhibitor concentration is indicative of a competitive, one step mechanism and was used to calculate kon and koff which yielded a value for Ki after taking into consideration the concentration and Km (38.5 μM) of the substrate in the assay.
The initial velocity of Pefachrome t-PA hydrolysis was measured by the change in absorbance at 405 nm using a Thermo Max® Kinetic Microplate Reader over a 2 minute period in which less than 5% of the added substrate was utilized. The relationship between the ratio of the inhibited steady-state velocity (Vs) and the uninhibited velocity (Vo) to the concentration of inhibitor [It ], was analyzed using Equation 1 developed by Morrison , J. F., Biochim. Biophys. Acta, 185:269 (1969) for inhibitors which deplete a significant amount of the total enzyme (Et) over the course of the assay (designated tight binding inhibitors):
Vs/Vo={([Et ]-[It ]-Ki*)+[([It ]+Ki*-[Et ])^2
Ki* was determined by fitting Vs/Vo verses [I] using Equation 1 by non-linear regression analysis.
The best fit of the data for both compounds was to the equation describing competitive inhibition.

A further assay addresses thrombin (Homo sapiens, UniProt P00734). The following applies: cited from earlier work.

Converted amounts (≈) assume the structure as drawn. Residues, ends and D or L forms follow the SMILES beside them. *: point of attachment. Pentanoyl(2-Pr) = CCCC(CCC)C(=O)*

The values that follow come from patent publication US5656600A, “α-ketoamide derivatives as inhibitors of thrombosis” (Corvas International, Inc., priority 1993, dated 1997).

In general, Ki refers to a measure of affinity in units of concentration, obtained from inhibition or displacement. As a reminder, the IC50 is the concentration that gives 50% inhibition.

In the case of `NC(=O)C(=O)C(N)Cc1ccccc1` (stereo not drawn) [3-Amino-2-oxo-4-phenylbutanoic acid amide], the Ki in assay [1] is 2500 nM; on arginyl aminopeptidase it was 1500 nM; at cytosol aminopeptidase, 1000 nM. The compound `CCCC(CCC)C(=O)N[C@@H](CC(=O)O)C(=O)N1CCC[C@H]1C(=O)N[C@@H](CCCNC(=N)N)C(=O)N1CCC[C@H]1C(=O)NCC(=O)NCC(=O)NCC(=O)NCC(=O)N[C@@H](CC(N)=O)C(=O)NCC(=O)N[C@@H](CC(=O)O)C(=O)N[C@@H](Cc1ccccc1)C(=O)N[C@@H](CCC(=O)O)C(=O)N[C@@H](CCC(=O)O)C(=O)N[C@H](C(=O)N1CCC[C@H]1C(=O)N[C@@H](CCC(=O)O)C(=O)N[C@@H](Cc1ccc(O)cc1)C(=O)N[C@@H](CC(C)C)C(=O)O)[C@@H](C)CC` [Compound 9] ({Pentanoyl(2-Pr)}-DPRPGGGGNGDFEEIPEYL-OH) had an inhibition constant (Ki) at α-thrombin of 46.1 nM. Still for that read-out and setting: the same measure for `CCCC(CCC)C(=O)N[C@@H](CC(=O)O)C(=O)N1CCC[C@H]1C(=O)N[C@@H](CCCNC(=N)N)C(=O)C(=O)NCC(=O)NCC(=O)NCC(=O)NCC(=O)NCC(=O)N[C@@H](CC(N)=O)C(=O)NCC(=O)N[C@@H](CC(=O)O)C(=O)N[C@@H](Cc1ccccc1)C(=O)N[C@@H](CCC(=O)O)C(=O)N[C@@H](CCC(=O)O)C(=O)N[C@H](C(=O)N1CCC[C@H]1C(=O)N[C@@H](CCC(=O)O)C(=O)N[C@@H](CCC(=O)O)C(=O)N[C@@H](Cc1ccc(O)cc1)C(=O)N[C@@H](CC(C)C)C(=O)O)[C@@H](C)CC` [Compound 10]: 0.04 nM; for `CCCC(CCC)C(=O)N[C@@H](CC(=O)O)C(=O)N1CCC[C@H]1C(=O)N[C@@H](CCCNC(=N)N)C(=O)C(=O)NCC(=O)NCC(=O)NCC(=O)NCC(=O)NCC(=O)N[C@@H](CCCNC(=N)N)C(=O)NCC(=O)N[C@@H](CC(=O)O)C(=O)N[C@@H](Cc1ccccc1)C(=O)N[C@@H](CCC(=O)O)C(=O)N[C@@H](CCC(=O)O)C(=O)N[C@H](C(=O)N1CCC[C@H]1C(=O)N[C@@H](CCC(=O)O)C(=O)N[C@@H](CCC(=O)O)C(=O)N[C@@H](Cc1ccc(O)cc1)C(=O)N[C@@H](CC(C)C)C(=O)O)[C@@H](C)CC` [Compound 11]: 0.0078 nM.

With `N=C(N)NCCC[C@@H]1NC(=O)[C@@H]2CCCN2C(=O)[C@@H](NC=O)CNC(=O)/C=C/[C@H](Cc2ccc(O)cc2)NC(=O)[C@@H](Cc2ccccc2)NC(=O)C1=O` [Cyclotheonamide A], the “IC50 (thrombin), reported” value on thrombin (Fusetani et al., Hagihara et al.) is 0.076 µg/mL (≈ 0.104 µM). The IC50 at thrombin (Fusetani et al., Hagihara et al., read-out: IC50 (thrombin), reported) was 99 nM. Consider “N-acetyl--D--Phe--Pro Arg--[.psi.C(=O)--CH2 ]--CH2 --CH2 --CH2 -(C=O)--Gln--Ser--His--Asn--Asp--Gly--Asp--Phe--Glu--Glu--Ile--Pro--Glu--Glu--Tyr--Leu--Gln”, for which the Ki on thrombin (literature values, read-out: Ki (thrombin), reported) is 0.14 nM.
